Experimental data: patent publication US20200224168A1, “COMPOSITIONS AND METHODS FOR ENHANCING MATURATION STATES OF HEALTHY AND DISEASED CARDIOMYOCYTES” (University of Washington, priority 2017, published 2020)

Columns and labels:
[1] = test system: mature DMD mutant hPSC-CMs; experiment: nanoMEA beat rate variability (Mean ΔBI), mature diseased cells; format: cell-based, human
Experimental: Cells were exposed to various concentrations of nitrendipine or sildenafil citrate for seven days and measured their beat rate variability. […] Briefly, the ion permeable polymer Nafion (Sigma-Aldrich) was patterned onto commercial multi-well MEA plates (Axion Biosystems) via solvent-mediated capillary force lithography. Prior to cell seeding, control flat or nanoMEA Nafion surfaces were sterilized with UV-C light and then incubated for 6 hours at 37° C. with 5 μg/cm^2 human fibronectin (Life Technologies). hPSC-CMs were plated in droplet fashion at 25,000 cells per well of the MEA plate. Electrophysiological analysis of spontaneously beating cardiomyocytes was collected for 2 minutes using the AxIS software (Axion Biosystems). After raw data collection, the signal was filtered using a Butterworth band-pass filter and a 90 μV spike detection threshold. Field potential duration was automatically determined using a polynomial fit T-wave detected algorithm.

[2] = test system: DMD patients; conditions: cited from earlier work
[3] = test system: mdx mouse; conditions: cited from earlier work
[4] = test system: cells exposed to Control conditions or Normal hPSC-CMs exposed to the ComboMat platform; experiment: nanoMEA beat rate variability, immature or healthy cells; format: cell-based, human; conditions: seven days
Experimental: Cells were exposed to various concentrations of nitrendipine or sildenafil citrate for seven days and measured their beat rate variability. […] Briefly, the ion permeable polymer Nafion (Sigma-Aldrich) was patterned onto commercial multi-well MEA plates (Axion Biosystems) via solvent-mediated capillary force lithography. Prior to cell seeding, control flat or nanoMEA Nafion surfaces were sterilized with UV-C light and then incubated for 6 hours at 37° C. with 5 μg/cm^2 human fibronectin (Life Technologies). hPSC-CMs were plated in droplet fashion at 25,000 cells per well of the MEA plate. Electrophysiological analysis of spontaneously beating cardiomyocytes was collected for 2 minutes using the AxIS software (Axion Biosystems). After raw data collection, the signal was filtered using a Butterworth band-pass filter and a 90 μV spike detection threshold. Field potential duration was automatically determined using a polynomial fit T-wave detected algorithm. Beat interval analysis on 30 consecutive beats was performed as previously published^26 (see Table 3).

[5] = test system: hPSC-CMs; experiment: Immunofluorescent imaging, morphological and sarcomere analysis; format: cell-based, human; conditions: for cell area compared to Control: single maturation cue on flat surface, 3 weeks
Text: For these studies, and all subsequent functional assays, the full ComboMat platform (Let7i+NP+T3) was compared to a viral vector Control (EV+Flat+No T3) and each maturation cue in isolation: NP (EV+NP+No T3), T3 (EV+Flat+T3), and Let7i (Let7i+Flat+No T3). […] Sarcomeres developed with a higher degree of directionality and order on NPs, resulting in more sarcomeres in register with one another (FIG. 2B).
[…] Samples were then permeabilized with 0.1% Triton X-100 (Sigma-Aldrich) in PBS and blocked with 5% goat serum. Cells were then incubated with mouse anti-α-actinin monoclonal antibody (1:1000, Sigma-Aldrich) in 1% goat serum overnight at 4° C. After washing with PBS, the samples were stained with Alexa-594 conjugated goat-anti-mouse secondary antibody (1:200, Invitrogen) as well as Alexafluo 488 labeled Phalloidin (1:200, Invitrogen). Nuclei counterstaining was performed with Vectashield containing DAPI (Vector Labs). A Nikon AIR confocal microscope with a Nikon CFI Plan Apo VC 60× water immersion objective was used to capture detailed immunofluorescent images for sarcomere analysis while a 20× air objective was used to obtain low-powered images of cells for measuring cell binucleation percentage. Cells from both objective powers were used to measure cell size. For morphological and sarcomere analysis, hPSC-CMs were plated at 10,000 cells/cm^2. […]
Immunofluorescent images were quantified for sarcomere alignment, pattern strength, and sarcomere length using a scanning gradient/Fourier transform script in MATLAB (Mathworks). Each image was broken into several small segments which were individually analyzed. Using a directional derivative, the image gradient for each segment was calculated to determine the local alignment of sarcomeres. The pattern strength was then determined by calculating the maximum peaks of one-dimensional Fourier transforms in the direction of the gradient. The lengths of sarcomeres were calculated by measuring the intensity profiles of the sarcomeres along this same gradient direction. […]

[6] = test system: DMD mutant hPSC-CMs; experiment: Primary drug screen: intracellular ATP (CellTiter Glo) viability after hypotonic stress; conditions: 18 hours compound incubation, then 12.5% normal osmolarity for 30 minutes, relative to DMSO control wells, concentration not stated (10^-8 to 10^-5 M tested)

CCOC(=O)C1=C(C)NC(C)=C(C(=O)OC)C1c1cccc([N+](=O)[O-])c1 (centres unmarked) [NITRENDIPINE]
effect on spontaneous beating ([1]; doses higher than 1 μM, seven days): ceased spontaneous beating
time for benefits to wash out after removal from cell culture medium ([1]; mature DMD mutant hPSC-CMs, Mean ΔBI after washout): ≤ 48 h
beat rate variability level restored ([1]; mature DMD mutant hPSC-CMs, doses up to 1 μM, seven days): < 50 ms

CCCc1nn(C)c2c(=O)[nH]c(-c3cc(S(=O)(=O)N4CCN(C)CC4)ccc3OCC)nc12 [sildenafil]
cardiac symptoms in DMD patients (clinical trial, terminated early) [2]: exacerbated cardiac symptoms
Mean ΔBI (beat rate variability) compared to DMSO carrier control ([1]; mature (ComboMat) DMD mutant hPSC-CMs, seven days exposure, various concentrations): no effect
cardiac dysfunction in the mdx mouse [3]: showed promise in alleviating cardiac dysfunction
impact on beat rate variability [4]: Neither nitrendipine nor sildenafil had a significant impact

Let7i: Let-7i miRNA (UGAGGUAGUAGUUUGUGCU duplex) overexpressed from a lentiviral vector (listed as Homo sapiens)
cell area compared to Control [5]: significantly larger

CN1CCc2c(c3ccccc3n2Cc2ccccc2)C1.CN1CCc2c(c3ccccc3n2Cc2ccccc2)C1.O=S(=O)(O)c1cccc2c(S(=O)(=O)O)cccc12 [MEBHYDROLIN NAPHTHALENESULFONATE]
Average of % Viability [6]: 172.81 ± 39.86%

N[C@@H](Cc1cc(I)c(Oc2ccc(O)c(I)c2)c(I)c1)C(=O)O [T3, Triiodothyronine]
impact of long-term exposure on sarcomere development and beat rate variability ([5]; long-term T3 exposure (7, 14, 21 days), preliminary results): negative impact
cell area compared to Control [5]: significantly larger
